Marks after values point to notes of the source that are not given here.
Legend:
[1] = tested on: rabbits subjected to anterior cruciate ligament transection (ACLT); assay: Rabbit ACLT study, µCT of subchondral bone plate; assay type: in vivo
Text: The animals were acquired following review and approval by the Institutional Animal Care and Use Committee (IACUC) at Numira (Salt Lake City, UT). The protocol was also reviewed and approved by the IACUC at Ibex Preclinical Research Inc. (Logan, UT). Male, New Zealand White rabbits (n = 32) were purchased from the Western Oregon Rabbit Co. (Philomath, OR). The animals were approximately 9 months old, weighed 3.7–4.5 kg at the start of the experiment and were randomized into four treatment groups based on body weight.
Pre-operative butorphanol (0.5–1.0 mg/kg, i.m.) for analgesia and glycopyrrolate (~ 0.1 mg/kg i.m.) were administered up to 15 min prior to induction. Anesthesia was induced by a mixture of ketamine (20–40 mg/kg, i.m.) and xylazine (5–10 mg/kg, i.m.), followed by placement of an endotracheal tube. General anesthesia was maintained with isoflurane. Perioperative cefazolin (40 mg/kg, i.v.) was administered, and […] (0.2 mg/kg, i.v.) was administered to reverse the effects of xylazine after endotracheal intubation was complete. A fentanyl patch (25 µg/h) was placed on a clipped area of the skin to provide post-operative analgesia. An incision of 1.5–2.5 cm was made in the skin over the medial side of the right knee under aseptic conditions. The patella was dislocated laterally and the knee placed in full flexion. The anterior cruciate ligament (ACL) was visualized and transected with an appropriate blade. In sham animals, the ACL was visualized but not transected. The joint was irrigated with sterile saline and closed. The muscle and skin were closed with suture and/or surgical glue. Butorphanol (0.5–1 mg/kg, i.m.) was administered after extubation to provide supplemental analgesia. The animals were then individually housed in stainless steel or plastic cages.
(§1) Starting 1 week after sham operation or ACLT, animals were dosed daily for 7 weeks by oral gavage with either MIV-711 (synthesized by Medivir and given as a suspension in 1% Methocel A4C in water) or vehicle (1% Methocel A4C in water) at a dose volume of 4 mL/kg. The four treatment groups (n = 7 in each group) were: (1) sham + vehicle; (2) ACLT + vehicle; (3) ACLT + MIV-711, 30 µmol/kg (low dose) and (4) ACLT + MIV-711, 100 µmol/kg (high dose).
Femora and tibias from all animals were subjected to µCT scanning without and with contrast reagent, to visualize bone and cartilage, respectively. Samples were scanned on a high-resolution, volumetric µCT scanner (μCT40, ScanCo Medical, Zurich, CH). The image data was acquired with the following parameters: 36 μm isotropic voxel resolution at 300 ms exposure time, 2000 views and 1 frame per view. Each sample was scanned twice, once for acquiring bone data and once for soft tissue data. After the bone scans, the knees were stained using hexabrix for contrast-enhanced imaging of the cartilage. The µCT-generated DICOM files were used to analyze the samples and to create volume renderings of the regions of interest (ROI). The raw data files were converted into a file format compatible with the segmentation software VHLab (Numira). VHLab was used for segmenting out the regions of interest (osteophyte, cartilage, and subchondral bone) for the femur and tibia of each sample. A region spanning 9 mm of the articulating surface of the femur and 6.5 mm of the tibia was selected for segmenting out the cartilage and subchondral bone in the anterior–posterior direction. After the segmentation process, the voxel count associated with each of the regions of interest was calculated using VHLab. The voxel count was then multiplied by the cubic voxel resolution to obtain volume measurements for the different ROI. Cartilage thickness was calculated using SCIRun (Scientific Computing and Imaging Institute, University of Utah). The distance from the bone to the outer surface of the articulating cartilage was calculated. An image was generated that translates the distances into a color map for viewing the thickness along the length of the cartilage. […]

[2] = tested on: cartilage degradation biomarker CTX-II; assay: Urinary CTX-II (cartilage degradation biomarker) in ACLT rabbits; assay type: in vivo, rabbit
Procedure: as §1
Urine was collected in the morning from all animals for biomarker measurements before surgery, before dosing on Day 1, Day 10 and during Week 4 and Week 7. The urine was stored frozen (− 70 to − 80 °C) until analysis.
In rabbits, conventional CTX-I assays to assess bone resorption cannot be used due to species differences. Instead, urinary helical peptide (HP-1) concentrations were measured in rabbits using the MicroVue Helical Peptide kit (Ref: 8022) from Quidel (San Diego, CA) according to the instructions supplied by the manufacturer. In dogs, urinary levels of C-terminal telopeptide of collagen type I (CTX-I) were measured using a commercially available kit (Urine BETA CrossLaps ELISA, Ref: AC-05F1, IDS Nordic Bioscience Diagnostics A/S). In rabbits and dogs, urinary concentrations of C-terminal telopeptide of collagen type II (CTX-II) were measured using the Urine CartiLaps EIA kit (Ref: AC-10F1) from Immunodiagnostics Systems (IDS, Herlev, Denmark) according to the instructions supplied by the manufacturer. In dogs, CTX-II levels were also measured in synovial fluid. Before ELISA analysis, 95 µL of synovial fluid was mixed with 5 µL of hyaluronidase (100 U/mL, Sigma, H-3884). The mixture was incubated overnight at 35 °C. The mixture was then used to measure CTX-II levels (Serum Pre-Clinical CartiLaps ELISA, Ref: AC-08F1, IDS Nordic Bioscience Diagnostics A/S). The creatinine levels in urine were determined at Swedish University of Agricultural Sciences (Uppsala, Sweden), using the enzymatic assay (Cat No. 8L24-01) on the Abbott system Architect c4000.

C#C[C@@H]1CN(C(=O)[C@H](CC(C)C)NC(=O)c2ccc(-c3nc(N4CCN(C)CC4)sc3F)cc2)[C@@H]2C(=O)CO[C@H]12 [MIV-711]
Subchondral bone plate Thickness, Lateral ([1]; Femur, high dose 100 µmol/kg): 321 ± 11 µm
Subchondral bone plate Thickness, Medial ([1]; Femur, high dose 100 µmol/kg): 388 ± 9 µm
Subchondral bone plate Thickness, Total ([1]; Femur, high dose 100 µmol/kg): 353 ± 8 µm
Subchondral bone plate Volume, Lateral ([1]; Femur, high dose 100 µmol/kg): 25.7 ± 1.2* mm^3
Subchondral bone plate Volume, Medial ([1]; Femur, high dose 100 µmol/kg): 29.9 ± 1.0 mm^3
Subchondral bone plate Volume, Total ([1]; Femur, high dose 100 µmol/kg): 55.6 ± 2.0* mm^3
Subchondral bone plate Thickness, Lateral ([1]; Femur, low dose 30 µmol/kg): 316 ± 10 µm
Subchondral bone plate Thickness, Medial ([1]; Femur, low dose 30 µmol/kg): 380 ± 13 µm
Subchondral bone plate Thickness, Total ([1]; Femur, low dose 30 µmol/kg): 347 ± 10 µm
Subchondral bone plate Volume, Lateral ([1]; Femur, low dose 30 µmol/kg): 25.0 ± 0.6* mm^3
Subchondral bone plate Volume, Medial ([1]; Femur, low dose 30 µmol/kg): 29.4 ± 0.8 mm^3
Subchondral bone plate Volume, Total ([1]; Femur, low dose 30 µmol/kg): 54.4 ± 0.8* mm^3
Subchondral bone plate Thickness, Lateral ([1]; Tibia, high dose 100 µmol/kg): 353 ± 12 µm
Subchondral bone plate Thickness, Medial ([1]; Tibia, high dose 100 µmol/kg): 462 ± 13 µm
Subchondral bone plate Thickness, Total ([1]; Tibia, high dose 100 µmol/kg): 401 ± 8 µm
Subchondral bone plate Volume, Lateral ([1]; Tibia, high dose 100 µmol/kg): 20.7 ± 1.0* mm^3
Subchondral bone plate Volume, Medial ([1]; Tibia, high dose 100 µmol/kg): 20.6 ± 0.5 mm^3
Subchondral bone plate Volume, Total ([1]; Tibia, high dose 100 µmol/kg): 41.2 ± 0.9* mm^3
Subchondral bone plate Thickness, Lateral ([1]; Tibia, low dose 30 µmol/kg): 326 ± 18 µm
Subchondral bone plate Thickness, Medial ([1]; Tibia, low dose 30 µmol/kg): 452 ± 15 µm
Subchondral bone plate Thickness, Total ([1]; Tibia, low dose 30 µmol/kg): 383 ± 15 µm
Subchondral bone plate Volume, Lateral ([1]; Tibia, low dose 30 µmol/kg): 18.5 ± 1.3* mm^3
Subchondral bone plate Volume, Medial ([1]; Tibia, low dose 30 µmol/kg): 20.6 ± 0.8 mm^3
Subchondral bone plate Volume, Total ([1]; Tibia, low dose 30 µmol/kg): 39.1 ± 2.0* mm^3
femur subchondral bone plate total thickness, difference vs. sham ([1]; low dose 30 µmol/kg): 0%
tibia subchondral bone plate total thickness, difference vs. sham ([1]; low dose 30 µmol/kg): 0%
CTX-II levels decreased by up to, vs ACLT vehicle controls ([2]; ACLT rabbits, over doses 30 and 100 µmol/kg and time points): up to 74%
urinary CTX-II levels reduced by, vs ACLT rabbits treated with vehicle ([2]; after 4 weeks, 30 µmol/kg (p > 0.05)): 38%
urinary CTX-II levels reduced by, vs ACLT rabbits treated with vehicle ([2]; after 4 weeks, 100 µmol/kg): 49%
urinary CTX-II levels reduced by, vs ACLT rabbits treated with vehicle ([2]; after 7 weeks, 30 µmol/kg (p > 0.05)): 14%
urinary CTX-II levels reduced by, vs ACLT rabbits treated with vehicle ([2]; after 7 weeks, 100 µmol/kg): 52%
urinary CTX-II levels reduced by, vs ACLT rabbits treated with vehicle ([2]; after 10 days of dosing, 30 µmol/kg): 53%
urinary CTX-II levels reduced by, vs ACLT rabbits treated with vehicle ([2]; after 10 days of dosing, 100 µmol/kg): 74%
